According to PubChem BioAssay (NCI):
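1) Cells in 96-well plates. 2) Compound, 48 h, 5 concentrations. 3) Linear interpolation between surrounding doses. 4) Unreached endpoint = highest concentration. GI50 is the concentration that inhibits growth by half. TGI marks complete inhibition of growth.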

Assays:
Assay in all cases: NCI-60 cell line screen, 48 h
[1] = test system: A498 renal
[2] = test system: OVCAR-8 ovarian
[3] = test system: SK-OV-3 ovarian
[4] = test system: HCT-15 colon
[5] = test system: NCI-H460 lung
[6] = test system: EKVX NSCLC
[7] = test system: KM12 colon
[8] = test system: HOP-92 NSCLC
[9] = test system: UO-31 renal
[10] = test system: SF-295 CNS
[11] = test system: HCT-116 colon
[12] = test system: OVCAR-3 ovarian
[13] = test system: ACHN renal
[14] = test system: K-562 leukemia
[15] = test system: MOLT-4 leukemia
[16] = test system: HCC-2998 colon
[17] = test system: NCI-H23 lung
[18] = test system: SNB-19 CNS
[19] = test system: RPMI-8226 leukemia
[20] = test system: LOX IMVI melanoma
[21] = test system: SK-MEL-5 melanoma
[22] = test system: SK-MEL-2 melanoma
[23] = test system: NCI/ADR-RES ovarian
[24] = test system: SK-MEL-28 melanoma
[25] = test system: UACC-62 melanoma
[26] = test system: TK-10 renal
[27] = test system: SR leukemia
[28] = test system: NCI-H226 lung
[29] = test system: BT-549 breast
[30] = test system: T-47D breast
[31] = test system: MDA-MB-435
[32] = test system: DU-145 prostate
[33] = test system: SF-539 CNS
[34] = test system: NCI-H522 lung
[35] = test system: A549 NSCLC
[36] = test system: MDA-MB-231 breast
[37] = test system: CCRF-CEM leukemia
[38] = test system: RXF 393 renal
[39] = test system: SNB-75 CNS
[40] = test system: HL-60(TB) leukemia
[41] = test system: SF-268 CNS
[42] = test system: CAKI-1 renal
[43] = test system: M14 melanoma
[44] = test system: 786-0 renal
[45] = test system: SN12C renal
[46] = test system: HT29 colon
[47] = test system: SW-620 colon
[48] = test system: MALME-3M melanoma
[49] = test system: HOP-62 NSCLC
[50] = test system: OVCAR-4 ovarian
[51] = test system: UACC-257 melanoma
[52] = test system: PC-3 prostate
[53] = test system: COLO 205 colon
[54] = test system: OVCAR-5 ovarian
[55] = test system: U251 CNS
[56] = test system: HS 578T breast
[57] = test system: IGROV1 ovarian
[58] = test system: MCF7 breast
[59] = test system: MDA-MB-468 breast

O=C(c1ccc(Cl)cc1)C1[C@H](c2ccccc2Cl)[C@@H](c2ccccc2)NC12C(=O)Nc1ccccc12 (stereo partly drawn)
GI50 [1]: 20.8 µM
TGI [1]: 60.1 µM
GI50 [2]: 22 µM
TGI [2]: 72.3 µM
GI50 [3]: 20.8 µM
TGI [3]: 82.7 µM
GI50 [4]: 25.3 µM
TGI [4]: > 100 µM
GI50 [5]: 17.8 µM
TGI [5]: 36.8 µM
GI50 [6]: 23.7 µM
TGI [6]: > 100 µM
GI50 [7]: 20.2 µM
TGI [7]: 58.1 µM
GI50 [8]: 17.7 µM
TGI [8]: 58.4 µM
GI50 [9]: 16.4 µM
TGI [9]: > 100 µM
GI50 [10]: 18.2 µM
TGI [10]: 49.7 µM
GI50 [11]: 14.5 µM
TGI [11]: 29.6 µM
GI50 [12]: 12.5 µM
TGI [12]: 35 µM
GI50 [13]: 20.9 µM
TGI [13]: 71.8 µM
GI50 [14]: 21.7 µM
TGI [14]: > 100 µM
GI50 [15]: 20.3 µM
TGI [15]: 74.9 µM
GI50 [16]: 19.1 µM
TGI [16]: 51.7 µM
GI50 [17]: 18.3 µM
TGI [17]: 52 µM
GI50 [18]: 30 µM
TGI [18]: > 100 µM
GI50 [19]: 25.7 µM
TGI [19]: 91.3 µM
GI50 [20]: 13.2 µM
TGI [20]: 27.3 µM
GI50 [21]: 15.2 µM
TGI [21]: 29.3 µM
GI50 [22]: 14.8 µM
TGI [22]: 32.1 µM
GI50 [23]: 14.9 µM
TGI [23]: 35.8 µM
GI50 [24]: 18.2 µM
TGI [24]: 40.3 µM
GI50 [25]: 12.6 µM
TGI [25]: 27.8 µM
GI50 [26]: 23.4 µM
TGI [26]: 87.9 µM
GI50 [27]: 14.7 µM
TGI [27]: 53.5 µM
GI50 [28]: 17.6 µM
TGI [28]: 47.4 µM
GI50 [29]: 16.2 µM
TGI [29]: 48.5 µM
GI50 [30]: 18.3 µM
TGI [30]: 74.1 µM
GI50 [31]: 12.7 µM
TGI [31]: 28.8 µM
GI50 [32]: 17.1 µM
TGI [32]: 51.2 µM
GI50 [33]: 18.1 µM
TGI [33]: 36 µM
GI50 [34]: 15.2 µM
TGI [34]: 46.3 µM
GI50 [35]: 24.9 µM
TGI [35]: > 100 µM
GI50 [36]: 15 µM
TGI [36]: 40.8 µM
GI50 [37]: 27.2 µM
TGI [37]: 95 µM
GI50 [38]: 13.2 µM
TGI [38]: 34.3 µM
GI50 [39]: 11 µM
TGI [39]: 71.3 µM
GI50 [40]: 17 µM
TGI [40]: 58.8 µM
GI50 [41]: 23.2 µM
TGI [41]: > 100 µM
GI50 [42]: 18.9 µM
TGI [42]: > 100 µM
GI50 [43]: 16.3 µM
TGI [43]: 43.1 µM
GI50 [44]: 20.5 µM
TGI [44]: 51.6 µM
GI50 [45]: 13.7 µM
TGI [45]: 28.4 µM
GI50 [46]: 14.6 µM
TGI [46]: 35 µM
GI50 [47]: 17.6 µM
TGI [47]: 51.2 µM
GI50 [48]: 15.7 µM
TGI [48]: 34.8 µM
GI50 [49]: 17.4 µM
TGI [49]: 61.8 µM
GI50 [50]: 25.6 µM
TGI [50]: > 100 µM
GI50 [51]: 23.3 µM
TGI [51]: 79 µM
GI50 [52]: 14.3 µM
TGI [52]: 72.9 µM
GI50 [53]: 16.3 µM
TGI [53]: 29.9 µM
GI50 [54]: 18.5 µM
TGI [54]: 66.7 µM
GI50 [55]: 23 µM
TGI [55]: 64.8 µM
GI50 [56]: 12 µM
TGI [56]: 34.6 µM
GI50 [57]: 26.1 µM
TGI [57]: > 100 µM
GI50 [58]: 16.2 µM
TGI [58]: 58.4 µM
GI50 [59]: 3.54 µM
TGI [59]: 20.6 µM
